Measurements as given in the supplement of paper PMC10733146.

What was measured:
Test in all cases: viability relative to DMSO control (fraction); higher = less drug effect (more viable cells)
Conditions in all cases: 48 h
[1] = test system: primary AML patient cells (S081)
Outline: (§1)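 Cells were incubated for 48 h at 37 °C and 5% CO2 in RPMI-1640 with penicillin/streptomycin, L-glutamine and human serum, at 4 × 10^4 cells per well in 384-well plates with compounds pre-plated at five concentrations, one well each. These were primary mononuclear tumour cells, fresh or cryopreserved, Ficoll-isolated from blood or bone marrow or obtained from processed lymph node. Viability values are CellTiter-Glo luminescence relative to the median of 16 inner DMSO wells.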

[2] = test system: primary FL patient cells (S087)
Outline: as §1

[3] = test system: primary AML patient cells (S012)
Outline: as §1

[4] = test system: primary MCL patient cells (S053)
Outline: as §1

[5] = test system: primary AML patient cells (S019)
Outline: as §1

[6] = test system: primary BL patient cells (S005)
Outline: as §1

[7] = test system: primary AML patient cells (S002)
Outline: as §1

[8] = test system: primary AML patient cells (S011)
Outline: as §1

[9] = test system: primary AML patient cells (S037)
Outline: as §1

[10] = test system: primary MCL patient cells (S068)
Outline: as §1

[11] = test system: primary AML patient cells (S025)
Outline: as §1

[12] = test system: primary AML patient cells (S091)
Outline: as §1

[13] = test system: primary AML patient cells (S009)
Outline: as §1

[14] = test system: primary AML patient cells (S085)
Outline: as §1

[15] = test system: primary MCL patient cells (S041)
Outline: as §1

[16] = test system: primary AML patient cells (S021)
Outline: as §1

[17] = test system: primary FL patient cells (S022)
Outline: as §1

[18] = test system: primary B-PLL patient cells (S016)
Outline: as §1

[19] = test system: primary AML patient cells (S017)
Outline: as §1

[20] = test system: primary T-PLL patient cells (S008)
Outline: as §1

CC[C@H](Nc1ncnc2[nH]cnc12)c1nc2cccc(F)c2c(=O)n1-c1ccccc1 [Idelalisib]
viability ([1]; 0.0032 µM): 1.07 | viability ([1]; 0.016 µM): 1.04 | viability ([1]; 0.08 µM): 1.06 | viability ([1]; 0.4 µM): 1.07 | viability ([1]; 2 µM): 1.03 | viability ([2]; 0.0032 µM): 0.984 | viability ([2]; 0.016 µM): 0.923 | viability ([2]; 0.08 µM): 0.848 | viability ([2]; 0.4 µM): 0.78 | viability ([2]; 2 µM): 0.793 | viability ([3]; 0.0032 µM): 1.02 | viability ([3]; 0.016 µM): 0.982 | viability ([3]; 0.08 µM): 1.18 | viability ([3]; 0.4 µM): 1.04 | viability ([3]; 2 µM): 1.06 | viability ([4]; 0.0032 µM): 1.02 | viability ([4]; 0.016 µM): 0.96 | viability ([4]; 0.08 µM): 0.946 | viability ([4]; 0.4 µM): 0.877 | viability ([4]; 2 µM): 0.815 | viability ([5]; 0.0032 µM): 1.02 | viability ([5]; 0.016 µM): 0.936 | viability ([5]; 0.08 µM): 1.01 | viability ([5]; 0.4 µM): 1.13 | viability ([5]; 2 µM): 0.996 | viability ([6]; 0.0032 µM): 1 | viability ([6]; 0.016 µM): 0.95 | viability ([6]; 0.08 µM): 0.982 | viability ([6]; 0.4 µM): 1.01 | viability ([6]; 2 µM): 0.86 | viability ([7]; 0.0032 µM): 0.969 | viability ([7]; 0.016 µM): 1.02 | viability ([7]; 0.08 µM): 0.957 | viability ([7]; 0.4 µM): 0.924 | viability ([7]; 2 µM): 0.785 | viability ([8]; 0.0032 µM): 0.968 | viability ([8]; 0.016 µM): 0.873 | viability ([8]; 0.08 µM): 0.924 | viability ([8]; 0.4 µM): 0.88 | viability ([8]; 2 µM): 0.829 | viability ([9]; 0.0032 µM): 0.976 | viability ([9]; 0.016 µM): 1.03 | viability ([9]; 0.08 µM): 1.03 | viability ([9]; 0.4 µM): 1.81 | viability ([9]; 2 µM): 0.983 | viability ([10]; 0.0032 µM): 0.888 | viability ([10]; 0.016 µM): 0.755 | viability ([10]; 0.08 µM): 0.663 | viability ([10]; 0.4 µM): 0.612 | viability ([10]; 2 µM): 0.558 | viability ([11]; 0.0032 µM): 0.92 | viability ([11]; 0.016 µM): 0.935 | viability ([11]; 0.08 µM): 0.959 | viability ([11]; 0.4 µM): 1.14 | viability ([11]; 2 µM): 0.924 | viability ([12]; 0.0032 µM): 0.929 | viability ([12]; 0.016 µM): 0.838 | viability ([12]; 0.08 µM): 0.773 | viability ([12]; 0.4 µM): 0.697 | viability ([12]; 2 µM): 0.558 | viability ([13]; 0.0032 µM): 0.985 | viability ([13]; 0.016 µM): 1.02 | viability ([13]; 0.08 µM): 1.04 | viability ([13]; 0.4 µM): 0.998 | viability ([13]; 2 µM): 0.905 | viability ([14]; 0.0032 µM): 1.04 | viability ([14]; 0.016 µM): 0.844 | viability ([14]; 0.08 µM): 0.788 | viability ([14]; 0.4 µM): 0.82 | viability ([14]; 2 µM): 0.755 | viability ([15]; 0.0032 µM): 0.949 | viability ([15]; 0.016 µM): 0.908 | viability ([15]; 0.08 µM): 0.886 | viability ([15]; 0.4 µM): 0.893 | viability ([15]; 2 µM): 0.887 | viability ([16]; 0.0032 µM): 1.03 | viability ([16]; 0.016 µM): 0.928 | viability ([16]; 0.08 µM): 0.843 | viability ([16]; 0.4 µM): 0.827 | viability ([16]; 2 µM): 0.741 | viability ([17]; 0.0032 µM): 1.05 | viability ([17]; 0.016 µM): 1.09 | viability ([17]; 0.08 µM): 0.955 | viability ([17]; 0.4 µM): 0.939 | viability ([17]; 2 µM): 0.929 | viability ([18]; 0.0032 µM): 1.08 | viability ([18]; 0.016 µM): 0.889 | viability ([18]; 0.08 µM): 0.905 | viability ([18]; 0.4 µM): 0.794 | viability ([18]; 2 µM): 0.751 | viability ([19]; 0.0032 µM): 1.09 | viability ([19]; 0.016 µM): 1.1 | viability ([19]; 0.08 µM): 1.16 | viability ([19]; 0.4 µM): 0.988 | viability ([19]; 2 µM): 0.808 | viability ([20]; 0.0032 µM): 1 | viability ([20]; 0.016 µM): 0.97 | viability ([20]; 0.08 µM): 1.03 | viability ([20]; 0.4 µM): 0.99 | viability ([20]; 2 µM): 0.992
